Data taken from patent publication US7361349B2, “Peptide, immunogenic composition and vaccine or medical preparation, a method to immunize animals against the hormone LHRH, and analogs of the LHRH tandem repeat peptide and their use as vaccine” (Pepscan Systems B.V., priority 1996, dated 2008).
“Also recorded” adds a separate entry of the source. Non-standard residues stand in square brackets, D forms with d. pGlu = O=C1CC[C@@H](C(=O)O)N1

Columns and labels:
testosterone = experiment: Testosterone levels in serum (Coat-a-Count kit); format: in vivo, pig; details: for testosterone (pmol/ml) at 13 wpv median (range): Table 3, serum, n.d. = not detectable; for testosterone level (in words): after immunization
Method: Blood samples were taken via puncture of the vena jugularis on the same days testis sizes were measured, and also 4 weeks after the initial immunization. Blood samples were kept overnight at 4° C. and the next day serum was obtained by centrifugation (1500 g, 15 min). Serum samples were stored at −20° C. until assayed.
Testosterone levels in serum were determined using a Coat-a-Count kit purchased from DPC laboratories, Los Angeles, Calif.

[1] = tested on: peptides used for immunization; experiment: Peptide antibodies ELISA of antisera; format: in vivo, pig; details: for anti peptide titer at 10 wpv: Table 3, mean titer against the peptide used for immunization
Method: Antibodies to the peptides used for immunization were determined with an ELISA. Peptides were coated in the wells of a microtitreplate using glutardialdehyde (GDA). GDA was coated to the surface of the wells by incubation with 0.2% GDA in 0.1 M phosphate buffer (pH 5) for 4 hours at room temperature. Plates were rinsed 3 times for 10 minutes with 0.1 M phosphate buffer (pH 8). One microgram peptide in […] phosphate buffer (0.1 M, pH 8) was coated per well by incubating for 3 hours at 37° C. Plates were stored at −20° C. until used. Thawed plates were rinsed 3 times for 10 minutes with milli Q water containing 8.2 g NaCl, 1.15 g Na2HPO4.2H2O, 0.20 g NaH2PO4.2H2O and 5 ml of a 10% Tween 80 solution in water per liter water.
Serial serum dilutions of the antipeptide sera were allowed to react with the coated peptides for 1 hour at 25° C. After rinsing 3 times for 10 minutes, goat-anti-pig IgG coupled to horseradish peroxidase (Dako, Glastrup, Denmark) was introduced as second antibody for 1 hour and ABTS (Boehringer, Mannheim, Germany) (([…] (2 g/100 ml) in 10 ml substrate buffer to which […] H2O2 (3% solution)) was used as substrate. Absorption was measured at 405 nm.

GnRH-II = experiment: GnRH antibody binding competitive radioimmunoassay, competition by GnRH-II; design: species or system pig; details: for sera with reduced binding to iodinated GnRH after competition by GnRH-II / binding of antibodies to GnRH-II: 10 wpv sera; for sera with reduced binding to iodinated GnRH after competition by GnRH-II / animals whose 10 wpv sera did not bind to GnRH-II: 1/10000 dilution; for sera with reduced binding to iodinated GnRH after competition by GnRH-II: share of sera per treatment; for binding of antibodies to GnRH-II: substantially all animals of the group; for animals whose 10 wpv sera did not bind to GnRH-II: 25 pmol peptide per well
Method: To determine whether antibodies raised by the GnRH vaccines according to the present invention discriminated between GnRH-I and GnRH-II, a GnRH antibody binding assay was performed in order to determine whether antibodies rose against GnRH-I-tandem dimer peptide or its alanine replacement analogs bind to GnRH-II or lack binding to GnRH-II. Serum dilutions were preincubated with either GnRH-I, GnRH-II, a control peptide, or no peptide. Next, iodinated GnRH-I was added to compete with the preincubated peptides for binding to the antibodies.
A GnRH antibody binding competitive radioimmunoassay was performed in order to determine whether antibodies raised against G6k-GnRH-tandem (SEQ ID NO: 9) dimer peptide or its alanine replacement analogs bind to GnRH-II or lack binding to GnRH-II. Serum dilutions were preincubated with either GnRH-I, GnRH-II, a control peptide or no peptide. Next, iodinated GnRH-I was added to compete with the preincubated peptides for binding to the antibodies.
This procedure was performed for serum collected before and after booster immunization, as specificity of the antibodies may increase after booster immunization due to antibody maturation.
(§1) Serum samples of the 10 wpv bleeding (3 weeks post booster immunization) were diluted 1/10000 in PBS with 0.4% BSA (dilution buffer). Fifty μl serum dilution was put in microwell plates and 25 μl peptide solution (0, 0.25, 2.5 or 25 pmol peptide in dilution buffer per well) was added. This mixture was allowed to incubate for 24 hours at 4° C. The next day, 25 μl iodinated GnRH (approximately 13000 cpm) was added and after overnight storage (4° C.) unbound peptide was separated from bound peptide with charcoal. After centrifugation, supernatant was separated, counted and the percentage of iodinated GnRH bound to the antibodies was calculated.
Antibodies collected after the first immunization (7 wpv) were tested in a 1/2000 serum dilution and only one peptide dilution was tested (25 pmol/well).

Male piglets = experiment: Immunocastration of pigs: testis size and testis weight after immunization; format: in vivo, pig; details: for testis weight (g) (median (range)) / number responders/total number: Table 2; for testis weight (g) (median (range)): after slaughter at 13 wpv; for number responders/total number: effectiveness according to testis weight; for testis weight (median range): Table 3; for animals that did not respond to the immunization: number of animals per group of 7
Method: Male piglets, approximately 10 weeks of age, were involved in this experiment. The crossbred piglets were housed in half-slatted pens and were given ad libitum access to feed and water.
The piglets were randomly assigned to the treatments, 6 or 7 piglets per treatment. All animals were injected with 2 ml emulsion containing the dimerized tandem GnRH conjugates (i.e., […] peptide) or an emulsion without antigen. Injections were administered intramuscularly in the neck at the start of the experiment (day 0) and 7 weeks later (7 wpv). Thirteen weeks after initial immunization (13 wpv) all animals were slaughtered.
Animals were weighed at day 0 and 7 and 13 wpv. Testis sizes were determined by measuring testis length with Vernier calipers at day 0, and 7, 10 and 13 weeks thereafter. Testis sizes were recorded as average of both testicles.
After slaughter testes were removed, dissected free of epididymes and weighed. Testes weights were recorded as average of both testicles.

^125I-GnRH = experiment: GnRH antibodies: binding of pig antisera to 125I-GnRH; format: in vivo; details: for GnRH binding (average): Table 3, GnRH antibody binding percentage of 125I-GnRH, average per treatment
Method: Antibodies to GnRH were determined as described by Meloen et al. (Vaccine 12, 741-746 (1994)). Serial dilutions of the pig antisera were allowed to bind to ^125I-GnRH. Titers are expressed as percentage binding of ^125I-GnRH at a given serum dilution.
as §1

[2] = 7 wpv (before booster), 1/2000 dilution, 25 pmol/well

| binding of antibodies to GnRH-II (GnRH-II) | Substance | testosterone (pmol/ml) at 13 wpv median (range) (testosterone) | testosterone level (in words) (testosterone) | anti peptide titer at 10 wpv [1] | sera with reduced binding to iodinated GnRH after competition by GnRH-II (GnRH-II) | testes weight (in words) (Male piglets) | testis weight (g) (median (range)) (Male piglets) | number responders/total number (Male piglets) | testis weight (median range) (Male piglets) | GnRH binding (average) (^125I-GnRH) [%] | animals whose prebooster sera showed binding to GnRH-II (GnRH-II; [2]) | animals whose 10 wpv sera did not bind to GnRH-II (GnRH-II) | prebooster sera that did not recognize GnRH-II (GnRH-II; [2]) | prebooster sera with no binding to iodinated GnRH (^125I-GnRH; 7 wpv (before booster), 1/2000 dilution) | animals that did not respond to the immunization (Male piglets) | antibody titers against the peptides used for immunization (in words) [1] |
| --- | --- | --- | --- | --- | --- | --- | --- | --- | --- | --- | --- | --- | --- | --- | --- | --- |
| – | R8A-G6k-GnRH-tandem ([pGlu]HWSY[dK]LAPGQHWSY[dK]LAPGC-NH2; also: dimer via Cys21) | n.d. (n.d.) | undetectable testosterone levels; also recorded: low testosterone level | 3.34 | all sera | low testes weight | 15 (10-19) g | 7/7 | 15 (10-19) | 17.7 | – | – | – | – | – | – |
| completely lacked binding to GnRH-II | S4A-G6k-GnRH-tandem ([pGlu]HWAY[dK]LRPGQHWAY[dK]LRPGC-NH2; also: dimer via Cys21) | n.d. (n.d.) | undetectable testosterone levels; also recorded: low testosterone level | 3.19 | – | effective in terms of low testes weights; also recorded: low testes weight | 36 (10-69) g | 7/7 | 36 (10-69) | 16.9 | all animals | 6 out of 7 | – | – | – | – |
| completely lacked binding to GnRH-II | pE1A-G6k-GnRH-tandem-dimer OVA conjugate (Ac-AHWSY[dK]LRPGAHWSY[dK]LRPGC-NH2; also: dimerized through Cys 21, ovalbumin conjugate) | – | – | 3.24 | – | effective in terms of low testes weights | 36 (16-65) g | 7/7 | 36 (16-65) | 15.7 | 4 out of 7 | 6 out of 7 | Two | one | – | – |
| – | Y5A-G6k-GnRH-tandem ([pGlu]HWSA[dK]LRPGQHWSA[dK]LRPGC-NH2; also: dimer via Cys21) | – | – | 2.92 | half of the sera | – | 44 (15-235) g | 5/7 | 44 (15-235) | 11.3 | – | – | – | – | 2 | – |
| – | G10A-G6k-GnRH-tandem ([pGlu]HWSY[dK]LRPAQHWSY[dK]LRPAC-NH2; also: dimerized through Cys 21) | n.d. (n.d.) | undetectable testosterone levels; also recorded: low testosterone level | 3.19 | all sera | low testes weight | 14 (11-39) g | 7/7 | 14 (11-39) | 17.6 | – | – | – | – | – | – |
| – | L7A-G6k-GnRH-tandem ([pGlu]HWSY[dK]ARPGQHWSY[dK]ARPGC-NH2; also: dimer via Cys21) | – | – | 3.52 | half of the sera | – | 20 (12-195) g | 6/7 | 20 (12-195) | 17.6 | – | – | – | – | 1 | – |
| – | P9A-G6k-GnRH-tandem-dimer conjugate ([pGlu]HWSY[dK]LRAGQHWSY[dK]LRAGC-NH2; also: dimerized through Cys 21, ovalbumin conjugate) | – | – | 2.62 | most of the sera | – | 23 (8-300) g | 6/7 | 23 (8-300) | 15.8 | – | – | – | – | 1 | lower than peptide antibody titers of other treatments |
